Consider 28 substances from patent US10385103B2, “Cell-permeable (ICP)-SOCS3 recombinant protein and uses thereof” (CELLIVERY THERAPEUTICS, INC., priority 2014, dated 2019).

This test relates to RAW 264.7 cells. The test is described as follows: Quantitative cell-permeability of FITC-labeled aMTD- or rPeptide-fused CRA recombinant proteins (flow cytometry). The format is cell-based. To be noted: for Relative Ratio to aMTD AVE: cell-permeability of rPeptide-fused CRA recombinant protein relative to average of 240 aMTDs. An excerpt: The aMTDs and rPeptides were fluorescently labeled and compared based on the critical factors for cell-permeability by using flow cytometry and confocal laser scanning microscopy (FIGS. 5 to 8). The cellular uptake of the peptide-fused non-functional cargo recombinant proteins could quantitatively be evaluated in flow cytometry, while confocal laser scanning microscopy allows intracellular uptake to be assessed visually. The analysis included recombinant proteins fused to a negative control [rP38] that has opposite characteristics (hydrophilic and aromatic sequence: […] NO: 952)) to the aMTDs (hydrophobic and aliphatic sequences). Relative cell-permeability (relative fold) of aMTDs to the negative control was also analyzed (Table 23 and FIG. 9). […] RAW 264.7 cells were treated with 10 μM FITC-labeled recombinant proteins for 1 hour at 37° C., washed three times with cold PBS, treated with 0.25% tripsin/EDTA (Sigma-Aldrich, St. Louis, Mo.) for 20 minutes at 37° C. to remove cell-surface bound proteins. Cell-permeability of these recombinant proteins were analyzed by flow cytometry (Guava, Millipore, Darmstadt, Germany) using the FlowJo cytometric analysis software (FIGS. 5 to 6).
A general note: A flow cytometer gives signals particle by particle.

The mark [1] stands for this setting: cell-permeability of aMTD-fused CRA recombinant protein relative to negative control (A: rP38).
The mark [2] stands for this setting: cell-permeability of aMTD-fused CRA recombinant protein relative to reference CPP (B: MTM12).
[3] abbreviates: cell-permeability of aMTD-fused CRA recombinant protein relative to reference CPP (C: MTD85).
Where [4] appears, read: 10 μM FITC-labeled, 1 hour, 37° C., RAW 264.7 cells.
Where [5] appears, read: cell-permeability relative to negative control rP38 (A type), aMTD-fused CRA recombinant protein, 10 μM FITC-labeled, 1 hour, 37° C., RAW 264.7 cells.
Setting [6] is: cell-permeability relative to reference CPP MTD85 (C type), aMTD-fused CRA recombinant protein, 10 μM FITC-labeled, 1 hour, 37° C., RAW 264.7 cells.
Setting [7] is: cell-permeability relative to reference CPP MTM12 (B type), aMTD-fused CRA recombinant protein, 10 μM FITC-labeled, 1 hour, 37° C., RAW 264.7 cells.

“312 (VALLAPAVVVAP; Amino acid Sequence of aMTD912) [compound 312]”: the “Relative Ratio (Fold) A” value under setting [1] was 19.9 Fold. Further, the “Relative Ratio (Fold) B” value under setting [2] is reported as 13.3 Fold. The “Relative Ratio (Fold) C” value under setting [3] came out at 6.7 Fold.
In the same order, the values of “321 (IVAVALPALAVP; Amino acid Sequence of aMTD321) [compound 321]” are 97.8 Fold, 65.2 Fold and 32.9 Fold.
In the same order, the values of “322 (VVAIVLPALAAP; Amino acid Sequence of aMTD322) [compound 322]” are 17.6 Fold, 11.7 Fold and 5.9 Fold.
In the same order, the values of “323 (IVAVALPVALAP; Amino acid Sequence of aMTD323) [compound 323]” are 19.1 Fold, 12.8 Fold and 6.4 Fold.
Consider “324 (IVAVALPAALVP; Amino acid Sequence of aMTD324) [compound 324]”, for which the “Relative Ratio (Fold) A” value worked out at 10.3 Fold under setting [1] and 10.3 Fold (relative cell-permeability of aMTD vs reference A (not defined)). Besides, the “Relative Ratio (Fold) B” value is 6.9 Fold under setting [2] and 6.9 Fold (relative cell-permeability of aMTD vs reference CPP B: MTM12). The “Relative Ratio (Fold) C” value by setting is: under setting [3], 3.5 Fold; (relative cell-permeability of aMTD vs reference CPP C: MTD85) 3.5 Fold.
For the substance “325 (IVAVALPAVALP; Amino acid Sequence of aMTD325) [compound 325]”, the “Relative Ratio (Fold) A” value under setting [1] came out at 11.7 Fold. For the same substance, the “Relative Ratio (Fold) B” value under setting [2] amounted to 7.8 Fold. Further, the “Relative Ratio (Fold) C” value under setting [3] is given as 4.0 Fold.
In the case of “329 (LPVLVPVVPVVP; Amino acid Sequence of rPeptide ID 329) [compound 329]”, the “Relative Ratio to aMTD AVE” value under setting [4] is on record as 0.23.
Consider “341 (IVAVALPAVLAP; Amino acid Sequence of aMTD341) [compound 341]”, for which, under setting [1], the “Relative Ratio (Fold) A” value is 16.4 Fold. Besides, the “Relative Ratio (Fold) B” value under setting [2] stood at 10.9 Fold. Also, the “Relative Ratio (Fold) C” value under setting [3] came to 5.5 Fold.
In the same order, the values of “342 (VIVALAPAVLAP; Amino acid Sequence of aMTD342) [compound 342]” are 12.7 Fold, 8.5 Fold and 4.3 Fold.
In the same order, the values of “343 (IVAVALPALVAP; Amino acid Sequence of aMTD343) [compound 343]” are 19.4 Fold, 12.9 Fold and 6.5 Fold.
In the same order, the values of “345 (ALLIVAPVAVAP; Amino acid Sequence of aMTD345) [compound 345]” are 8.9 Fold, 5.9 Fold and 3.0 Fold.
Regarding “361 (AVVIVAPAVIAP; Amino acid Sequence of aMTD361) [compound 361]”, the “Relative Ratio (Fold) A” value under setting [1] came to 16.0 Fold. Under setting [2], the “Relative Ratio (Fold) B” value is 10.7 Fold. The “Relative Ratio (Fold) C” value under setting [3] is 5.4 Fold.
For the substance “364 (LVAAVAPALIVP; Amino acid Sequence of aMTD364) [compound 364]”, the “Relative Ratio (Fold) A” value under setting [5] is given as 6.5 Fold. The “Relative Ratio (Fold) C” value under setting [6] is listed as 2.2 Fold. Further, the “Relative Ratio (Fold) B” value under setting [7] turned out to be 4.3 Fold.
In the case of “365 (AVIVVAPALLAP; Amino acid Sequence of aMTD365) [compound 365]”, the “Relative Ratio (Fold) A” value worked out at 9.3 Fold under setting [1] and 9.3 Fold under setting [5]. The “Relative Ratio (Fold) B” value is on record as 6.2 Fold under setting [2] and 6.2 Fold under setting [7]. Moreover, the “Relative Ratio (Fold) C” value reads like this: under setting [3], 3.1 Fold; under setting [6], 3.1 Fold.
For “382 (AAALVIPAILAP; Amino acid Sequence of aMTD382) [compound 382]”, the “Relative Ratio (Fold) A” value under setting [1] stood at 17.7 Fold. Besides, the “Relative Ratio (Fold) B” value under setting [2] is 11.8 Fold. Moreover, the “Relative Ratio (Fold) C” value under setting [3] turned out to be 6.0 Fold.
In the same order, the values of “383 (VIVALAPALLAP; Amino acid Sequence of aMTD383) [compound 383]” are 11.6 Fold, 7.7 Fold and 3.9 Fold.
Turning to “384 (VIVAIAPALLAP; Amino acid Sequence of aMTD384) [compound 384]”, the “Relative Ratio (Fold) A” value under setting [1] is given as 14.0 Fold. The “Relative Ratio (Fold) B” value under setting [2] amounted to 9.4 Fold. Also, the “Relative Ratio (Fold) C” value under setting [3] is on record as 4.7 Fold.
In the same order, the values of “385 (IVAIAVPALVAP; Amino acid Sequence of aMTD385) [compound 385]” are 38.8 Fold, 25.9 Fold and 13.1 Fold.
Take “390 (VPLLVPVVPVVP; Amino acid Sequence of rPeptide ID 390) [compound 390]”: the “Relative Ratio to aMTD AVE” value under setting [4] came to 0.41.
“391 (VVAIVLPAVAAP; Amino acid Sequence of aMTD381) [compound 391]”: the “Relative Ratio (Fold) A” value under setting [1] is reported as 11.5 Fold. Also, the “Relative Ratio (Fold) B” value under setting [2] is reported as 7.7 Fold. For the same substance, under setting [3], the “Relative Ratio (Fold) C” value came to 3.9 Fold.
In the same order, the values of “401 (AALAVIPAAILP; Amino acid Sequence of aMTD401) [compound 401]” are 10.6 Fold, 7.1 Fold and 3.6 Fold.
As for “402 (ALAAVIPAAILP; Amino acid Sequence of aMTD402) [compound 402]”, under setting [5], the “Relative Ratio (Fold) A” value came out at 6.4 Fold. Further, under setting [6], the “Relative Ratio (Fold) C” value is recorded as 2.2 Fold. In addition, the “Relative Ratio (Fold) B” value under setting [7] is on record as 4.3 Fold.
With “403 (AAALVIPAAILP; Amino acid Sequence of aMTD403) [compound 403]”, the “Relative Ratio (Fold) A” value under setting [1] was 25.2 Fold. The “Relative Ratio (Fold) B” value under setting [2] is given as 16.8 Fold. Besides, the “Relative Ratio (Fold) C” value under setting [3] is reported as 8.5 Fold.
With “404 (LAAAVIPAAILP; Amino acid Sequence of aMTD404) [compound 404]”, the “Relative Ratio (Fold) A” value under setting [1] turned out to be 18.9 Fold. Further, the “Relative Ratio (Fold) B” value under setting [2] is listed as 12.6 Fold. Further, the “Relative Ratio (Fold) C” value under setting [3] turned out to be 6.4 Fold.
In the case of “405 (LAAAVIPVAILP; Amino acid Sequence of aMTD405) [compound 405]”, the “Relative Ratio (Fold) A” value under setting [1] is 22.2 Fold. Besides, the “Relative Ratio (Fold) B” value under setting [2] stood at 14.8 Fold. Also, the “Relative Ratio (Fold) C” value under setting [3] came to 7.5 Fold.
With “421 (AAILAAPLIAVP; Amino acid Sequence of aMTD421) [compound 421]”, the “Relative Ratio (Fold) A” value under setting [5] came to 6.7 Fold. Also, under setting [6], the “Relative Ratio (Fold) C” value is reported as 2.3 Fold. Besides, the “Relative Ratio (Fold) B” value under setting [7] is listed as 4.5 Fold.
Take “422 (VVAILAPLLAAP; Amino acid Sequence of aMTD422) [compound 422]”: the “Relative Ratio (Fold) A” value under setting [1] was 19.6 Fold. Under setting [2], the “Relative Ratio (Fold) B” value was 13.1 Fold. Further, the “Relative Ratio (Fold) C” value under setting [3] was found to be 6.6 Fold.
For “424 (AVVVAAPVLALP; Amino acid Sequence of aMTD424) [compound 424]”, under setting [5], the “Relative Ratio (Fold) A” value stood at 6.6 Fold. In addition, the “Relative Ratio (Fold) C” value under setting [6] is 2.2 Fold. Also, under setting [7], the “Relative Ratio (Fold) B” value is 4.4 Fold.
